US20230279379A1, “METHODS AND MICROFLUIDIC DEVICE FOR PRODUCING EXTRACELLULAR VESICLES” (THE BOARD OF TRUSTEES OF THE UNIVERSITY OF ILLINOIS, priority 2022, published 2023)
Entries after “also recorded” stand apart in the source; their conditions may differ. Where no end group is shown, it is not given here.

Tested on: Primary human MSCs
Assay: EV secretion per cell from MSCs on hydrogel substrates, nanoparticle tracking analysis
Type: cell-based
Settings: for EV secretion vs vehicle: 3 μM MnCl2 during and after adhesion, elastic alginate-RGD hydrogels, soft and stiff
Description: Cell Seeding on Hydrogels. Hydrogel discs were placed in ultra-low binding polystyrene well plates (Corning) to ensure cells attach to hydrogels and not the plate surface. Hydrogels were washed with Hank's buffered salt solution (HBSS, Thermo Fisher Scientific) for at least 3 days before seeding cells. Cells were seeded at a low density (25 cells/mm^2). After seeding, hydrogels were washed thoroughly to remove unattached cells. Drug treatments of 3 μM MnCl2 (Thermo Fisher Scientific), 200 nM EMD 121974 sold under the tradename Cilengitide® (Cayman) and 5 μM CK869 (Cayman) were applied during and after cell adhesion to substrates. To evaluate the number of live cells seeded on substrates, cells were detached by incubating with a natural enzyme mixture with proteolytic and collagenolytic enzyme activity sold under the tradename ACCUTASE® Cell Detachment Solution (Innovative Cell Technologies, Inc.) for 10 minute at 37° C. Cells were then washed by centrifugation and directly added to HBSS containing calcein AM (1:2000; Biotium), ethidium bromide (1:2000; Thermo Fisher Scientific), and a predefined number of allophycocyanin (APC) beads (BD). After incubation at room temperature (RT) for 10 minutes, the samples were analyzed for live and dead cell number by flow cytometry.
Particle Size and Number Characterization. Particle size and number were obtained using Nanoparticle Tracking Analysis 3.2 (NTA) via NanoSight NS300 (Malvern) using a 405 nm laser. Samples were introduced by syringe pump at a rate 100 μL/min. Three thirty-second videos were acquired using camera level 14 followed by detection threshold 7. Camera focus, shutter, blur, minimum track length, minimum expected particle size and maximum jump length were set automatically by the software. Samples were diluted as needed to maintain particles per video from 100-2000. To ensure specificity, all samples were tested as compared to appropriate blank conditions.
To test the effect of substrate mechanics on EV secretion from MSCs, hydrogel substrates were engineered which were composed of alginate polymer conjugated with the cell adhesion peptide Arg-Gly-Asp (RGD) that binds primarily to αvβ3 and α5β1 integrins. Alginate-RGD hydrogels can be formed either covalently through adipic acid dihydrazide or physically through divalent cations, resulting in elastic or stress-relaxing hydrogels, respectively. For both types of hydrogels, elastic modulus (Young's modulus, E) of ˜3 kPa ‘soft’ and E ˜20 kPa ‘stiff’ were considered values that represent a physiologically relevant range of substrate elasticity for MSC mechanosensing, while E is ˜0.1 GPa for conventional plastic substrates. Primary human bone marrow MSCs were allowed to adhere to substrates for 24 hours followed by washout and collection of the serum-free conditioned medium from MSCs after 24 hours. After centrifugation of the medium at 10,000 g to remove cell, apoptotic, and larger particle fractions, particles remaining in the medium were analyzed by nanoparticle tracking analysis and normalized to the number of live adhered cells counted by flow cytometry (see Methods). MSCs were seeded at low density (˜25 cells/mm^2) to avoid potential effects from cell-cell interactions. […] Thus, focus was placed on the EVs remaining in the supernatant after the 10,000 g centrifugation. For these EVs, the particle size distribution remained similar across different substrates with median diameter ˜120 nm (FIG. 1B). […] Moreover, EVs from different substrates expressed similar levels of late endosomal markers CD63 and CD9. Importantly, levels of ribosomal RNA (rRNA) in particle preparations were similar across hydrogels or plastic substrates, and rRNA as a percentage of total RNA was lower than that found in untreated MSCs or particles derived from H2O2-treated apoptotic MSCs, ruling out apoptosis as a potential factor of increased EV secretion on the soft hydrogel. […]

For Cc1ccc2c(c1)C(=O)C1(O)CCN(c3ccccc3)C1=N2 (stereo not drawn) [blebbistatin], the exosome secretion (50 μM blebbistatin, soft or stiff elastic alginate-RGD hydrogels) was “did not impact exosome secretion”.

[Cl][Mn][Cl] [MnCl2] was tested, and the “EV secretion vs vehicle” value was “inhibits EV secretion” and the “EV secretion vs vehicle” value (listed as Mn^2+) was “decreased to a greater extent on the soft hydrogel than the stiff hydrogel”.

With “RGD: cell adhesion peptide, amino acid sequence GGGGRGDSP (SEQ ID NO:1), conjugated to hydrogel (also: conjugated to hydrogel)” the “EV secretion on decreasing the amount of RGD conjugated in hydrogels” value (FIG. 5) was “significantly increases EV secretion” and the “increase in EV secretion per cell” value (decreasing RGD concentration from 0.8 to 0.16 mM, both soft and stiff hydrogels) was about 2 fold.

For CC(C)[C@H]1C(=O)N[C@@H](CCCN=C(N)N)C(=O)NCC(=O)N[C@@H](CC(=O)O)C(=O)N[C@H](Cc2ccccc2)C(=O)N1C [EMD 121974], the EV secretion (200 nM EMD 121974 during and after adhesion, soft and stiff hydrogels) was “significantly increased EV secretion on both soft and stiff hydrogels; also recorded: enhances EV secretion”.
